# Assay results taken from patent US20260234128A1, “CRYSTALLINE FORMS OF 2-(4-(4-(AMINOMETHYL)-1-OXO-1,2- DIHYDROPHTHALAZIN-6-YL)-1-METHYL-1H- PYRAZOL-5-YL)-4-CHLORO-6-CYCLOPROPOXY-3-FLUOROBENZONITRILE” (MIRATI THERAPEUTICS, INC., priority 2023, published 2026).
# Where a name gives a salt, the structure may show the parent alone.
# Tests used:
# [1] = Intrinsic dissolution rate and drug in capsule dissolution in FaSSGF and FaSSIF; assay type: physicochemical
# Method: The IDR rate was calculated using the slope of the linear curve divided by the surface area of tablet (0.5 cm^2). […] 0.6 mL liquid was removed with a syringe at each time point and filtered. The concentration of filtrates was analyzed by HPLC.
# [2] = Excipient compatibility (binary mixtures, total impurity by HPLC); assay type: physicochemical
# Text: Binary mixtures of samples were created by mixing the substance and the excipients (1:10 Compound to Excipients for fillers and 1:1 for all other excipients) using a mortar and pestle and the resultant mixture was accurately weighed and transferred into sample vials. The excipients used were as follows: colloidal silicon dioxide 200, croscarmellose sodium, crospovidone XL-10, dibasic calcium phosphate (an), hydroxypropyl cellulose, lactose monohydrate, magnesium stearate, mannitol 100SD, MCC PH102, Opadry™ II, povidone K-30, pregelatinized starch 1500, sodium starch glycolate, and sodium stearyl fumarate. The sample vials were set down at 40° C./75% RH condition for 8 weeks in open condition before analyzing their impurity levels using HPLC.
# [3] = Pharmacokinetics after oral capsule administration in male beagle dogs pre-treated with pentagastrin or famotidine; assay type: in vivo
# Method: The substances were filled into Empty HPMC Capsules after correcting for potency and administered to dogs pre-treated with either pentagastrin or famotidine along with 40 mL of water. Pentagastrin enhances gastric secretions whereas famotidine neutralizes gastric sections. Therefore, pentagastrin and famotidine pre-treatments were used to simulate the impact of gastric pH on bioavailability and reduce the variability in gastric pH between dogs.
# Plasma samples were collected at pre-defined intervals and analyzed for the concentration of Compound 1. The plasma concentration versus time data was analyzed by non-compartmental approaches using Win Nonlin software program to estimate PK parameters such as Cmax, Tmax, AUC0-t and AUC0-inf.
# [4] = Dynamic vapor sorption (DVS) hygroscopicity; assay type: physicochemical; details: for form change after DVS evaluation: sample after DVS
# Method: The hygroscopicity of HCl Form A was also evaluated by conducting dynamic vapor sorption experiments.
# The hygroscopicity of HCl Form B was also evaluated by conducting dynamic vapor sorption experiments.
# The hygroscopicity of HCl Form E was also evaluated by conducting dynamic vapor sorption experiments.
# [5] = Manufacturability and physical stability (compressibility, tabletability, compatibility, XRD after compaction); assay type: physicochemical
# Method: The XRD patterns were compared with the uncompressed compound. X-ray powder diffractograms were obtained on a wide-angle X-ray diffraction instrument (X'Pert Pro; PANalytical Inc., West Borough, MA) using Cu Ká radiation. The voltage and current applied were 45 kV and 40 mA, respectively. Each measurement was performed with a step size of 0.0167° in the 2-theta range of 5-35° and a dwell time of 0.4 s.
# [6] = Competitive slurry experiments (relative stability of crystal forms); assay type: physicochemical
# Text: Pattern A was observed under certain conditions during competitive slurry experiments. Pattern A was confirmed to be racemate by chiral HPLC analysis.
# [7] = 25° C. between 10% relative humidity and 90% relative humidity, hydrochloride salt
structure (smiles),measurement,setting,value
"Cn1ncc(-c2ccc3c(=O)[nH]nc(CN)c3c2)c1-c1c(F)c(Cl)cc(OC2CC2)c1C#N [Free Base Form A, 2-(4-(4-(aminomethyl)-1-oxo-1,2-dihydrophthalazin-6-yl)-1-methyl-1H-pyrazol-5-yl)-4-chloro-6-cyclopropoxy-3-fluorobenzonitrile]",dissolution in gastric media,"[1]; 37° C., 50 rpm, USP Type II",faster dissolution in gastric media
same,super saturation in intestinal fluid,[1]; pH shifted from gastric to intestinal after 30 minutes,able to maintain super saturation in intestinal fluid
same,compatibility with excipients (total impurity content),"[2]; binary mixtures, 40° C./75% RH, 8 weeks, open condition, HPLC",good compatibility with excipients
same,sensitivity to individual excipients,"[2]; colloidal silicon dioxide and lactose monohydrate, 40° C./75% RH, 8 weeks, open",more sensitive to colloidal silicon dioxide and lactose monohydrate than HCl Form B
same,risk of chemical stability,"[2]; with excipients, manageable by choice of excipients",slightly higher
same,exposure,"[3]; oral 100 mg/dog, when the particle size was normalized",equivalent exposure to HCl salt
"Cn1ncc(-c2ccc3c(=O)[nH]nc(CN)c3c2)c1-c1c(F)c(Cl)cc(OC2CC2)c1C#N [HCl Form A, 2-(4-(4-(aminomethyl)-1-oxo-1,2-dihydrophthalazin-6-yl)-1-methyl-1H-pyrazol-5-yl)-4-chloro-6-cyclopropoxy-3-fluorobenzonitrile hydrochloride salt]",water uptake (DVS isotherm),[4]; [7],approximately 1.43%
same,"Hygroscopicity (25° C./80% RH), class in words",[4],slightly
same,Hygroscopicity (25° C./80% RH),[4]; hydrochloride salt,1.43%
same,form change after DVS evaluation,[4],No form change was observed
same,stability relative to the other HCl form,[3]; conclusion drawn from the dog study results,less stable than HCl Form B
"Cn1ncc(-c2ccc3c(=O)[nH]nc(CN)c3c2)c1-c1c(F)c(Cl)cc(OC2CC2)c1C#N [HCl Form B, 2-(4-(4-(aminomethyl)-1-oxo-1,2-dihydrophthalazin-6-yl)-1-methyl-1H-pyrazol-5-yl)-4-chloro-6-cyclopropoxy-3-fluorobenzonitrile hydrochloride salt]",dissolution rate in intestinal media,"[1]; 37° C., 50 rpm, USP Type II",slightly faster dissolution rate than Free Base Form A
same,dissolution in gastric media,"[1]; 37° C., 50 rpm, USP Type II, hydrochloride salt",common ion effect slowing dissolution
same,water uptake (DVS isotherm),[4]; [7],approximately 1.3%
same,"Hygroscopicity (25° C./80% RH), class in words",[4],slightly
same,Hygroscopicity (25° C./80% RH),[4]; hydrochloride salt,1.3%
same,form change after DVS evaluation,[4],No form change was observed
same,compatibility (tensile strength vs porosity),[5]; at high pressures,good
same,compressibility (porosity vs compaction pressure),[5]; at high pressures,good
same,tabletability (tensile strength vs compaction pressure),[5]; at high pressures,good
same,phase stability by XRD after compression,[5]; high compaction pressure (300 MPa),loss of crystallinity was observed
"Cn1ncc(-c2ccc3c(=O)[nH]nc(CN)c3c2)c1-c1c(F)c(Cl)cc(OC2CC2)c1C#N [HCl Form E, 2-(4-(4-(aminomethyl)-1-oxo-1,2-dihydrophthalazin-6-yl)-1-methyl-1H-pyrazol-5-yl)-4-chloro-6-cyclopropoxy-3-fluorobenzonitrile hydrochloride salt]",water uptake (DVS isotherm),[4]; 25° C. between 0% relative humidity and 80% relative humidity,approximately 2.56%
same,"Hygroscopicity (25° C./80% RH), class in words",[4],slightly
same,Hygroscopicity (25° C./80% RH),[4]; hydrochloride salt,2.56%
same,form change after DVS evaluation,[4],No form change was observed
same,Crystal Form,"[6]; H2O (starting with Type E only) at 25° C., 4 d",Form B
same,Crystal Form,"[6]; H2O (starting with Type E only) at 25° C., 8 d",Form B
"Cn1ncc(-c2ccc3c(=O)[nH]nc(CN)c3c2)c1-c1c(F)c(Cl)cc(OC2CC2)c1C#N [HCl salt, 2-(4-(4-(aminomethyl)-1-oxo-1,2-dihydrophthalazin-6-yl)-1-methyl-1H-pyrazol-5-yl)-4-chloro-6-cyclopropoxy-3-fluorobenzonitrile hydrochloride salt]",variability of plasma exposure,"[3]; pentagastrin-treated dogs, oral 100 mg/dog, ascribed to common ion effect in the gastric media",high variability
"Cn1ncc(-c2ccc3c(=O)[nH]nc(CN)c3c2)c1-c1c(F)c(Cl)cc(OC2CC2)c1C#N [amorphous HCl salt, 2-(4-(4-(aminomethyl)-1-oxo-1,2-dihydrophthalazin-6-yl)-1-methyl-1H-pyrazol-5-yl)-4-chloro-6-cyclopropoxy-3-fluorobenzonitrile]",Crystal Form,"[6]; EtOH/H2O (40:60 v/v) at 25° C., 1d (a clear solution was obtained before precipitation)",Pattern A
